Values joined by “and” are separate entries in the source; they are usually repeats but may differ in a detail not shown here. Equal values may be shown once.
Experiments:
[1] = tested on: MCF-7, cancer cell line; experiment: MCF-7 growth inhibition (SRB or Sysmex cell counting); format: cell-based; conditions: SRB or CC assay
[2] = tested on: Human umbilical vein endothelial cells; experiment: Proliferation Assay - activated endothelium (MTT); format: cell-based; conditions: HUVEC, range within which the IC50 value falls, 48 hrs culture, read-out: Inhib activated HUVECs IC50
Method: Proliferation Assay—activated endothelium: Human umbilical vein endothelial cells (CC-2519, Clonetics) were plated at 2500 cells/well in EGM2 (CC-3162, Clonetics) in a 96 well plate in triplicate. Cells were cultured overnight at 37° C. 5% CO2. Medium was subsequently replaced with fresh medium including the compound or negative control. Cells were cultured for a period of 48 hrs. An MTT assay was performed to measure changes in cell numbers. Briefly, 20 μl of MTT reagent was added to cells containing 100 μl of EGM2 and incubated at 37° C. for 2 hours. Absorbance was measured at 492 nm.

[3] = concentration required to inhibit net cell growth by 50%
[4] = Homo sapiens, MCF7, concentration required to inhibit net cell growth by 50%

“2-Imidazol-1-yl-7-O-bis-(triethylammonium)phosphate-6-methoxy-3-(3,4,5-trimethoxybenzoyl)-benzo[b]furan [Entry 49]” was tested, and the IC50 [1, 3] was 1.4 nM and 2.2 nM.
For `COc1ccc(/C=C\c2cc(OC)c(OC)c(OC)c2)cc1O` [Entry 1, reference compound], the IC50 [2] was 1 to 10 nM.
In the case of `COc1cc(C(=O)c2coc3c(O)c(OC)ccc23)cc(OC)c1OC` [Entry 7, reference compound], the IC50 [1, 4] is reported as 62 nM, the IC50 [1, 3] is reported as 31 nM and the IC50 [2] is reported as 10 to 100 nM.
`COc1ccc(-c2oc3c(OP(=O)(O)O)c(OC)ccc3c2C(=O)c2cc(OC)c(OC)c(OC)c2)cc1` [Entry 8, reference compound] was tested, and the IC50 [1, 4] was 3.6 nM and the IC50 [1, 3] was 4.2 nM and 6 nM and 4.7 nM.
Work on `COc1cc(C(=O)c2coc3c(OP(=O)(O)O)c(OC)ccc23)cc(OC)c1OC` [Entry 9, reference compound] yielded an IC50 [1, 4] of 41 nM and an IC50 [1, 3] of 82 nM.
In the case of `COc1cc(C(=O)c2c(-c3cnn(C)c3)oc3c(OC(C)C)c(OC)ccc23)cc(OC)c1OC` [Entry 13], the IC50 [1, 4] is reported as 48 nM and the IC50 [1, 3] is reported as 35 nM.
With `COc1cc(C(=O)c2c(-c3cnn(Cc4ccccc4)c3)oc3c(O)c(OC)ccc23)cc(OC)c1OC` [Entry 15] the IC50 [1, 4] was 4.1 nM and the IC50 [1, 3] was 3.3 nM.
Molecule `COc1cc(C(=O)c2c(-c3cn[nH]c3)oc3c(O)c(OC)ccc23)cc(OC)c1OC` [Entry 16, [7-Hydroxy-6-methoxy-2-(1H-pyrazol-4-yl)-benzofuran-3-yl]-(3,4,5-trimethoxyphenyl)-methanone] has an IC50 [1, 4] of 3 nM, an IC50 [1, 3] of 3.4 nM and an IC50 [2] of 1 to 10 nM.
With `COc1ccc2c(C(=O)c3cc(OC)c(OC)c(OC)c3)c(-c3cnn(Cc4ccccc4)c3)oc2c1` [Entry 17, [2-(1-Benzyl-1H-pyrazol-4-yl)-6-methoxy-benzofuran-3-yl]-(3,4,5-trimethoxyphenyl)-methanone] the IC50 [1, 4] was 110 nM, the IC50 [1, 3] was 83 nM and the IC50 [2] was 100 to 1000 nM.
Molecule `COc1ccc2c(C(=O)c3cc(OC)c(OC)c(OC)c3)c(-c3ccsc3)oc2c1` [Entry 18, 2-(3-Thiophenyl)-3-(3,4,5-trimethoxybenzoyl)-6-methoxy-benzo[b]furan] has an IC50 [1, 4] of 17 nM, an IC50 [1, 3] of 22 nM and an IC50 [2] of 10 to 100 nM.
`COc1ccc2c(C(=O)c3cc(OC)c(OC)c(OC)c3)c(-c3cnn(C)c3)[nH]c2c1` [Entry 19, [6-Methoxy-2-(1-methyl-1H-pyrazol-4-yl)-1H-indol-3-yl]-(3,4,5-trimethoxyphenyl)-methanone] gave an IC50 [1, 4] of 12 nM and an IC50 [2] of 10 to 100 nM.
With `COc1cc(C(=O)c2c(-c3cnn(C)c3)oc3c([N+](=O)[O-])c(OC)ccc23)cc(OC)c1OC` [Entry 20, [6-Methoxy-7-nitro-2-(1-methyl-1H-pyrazol-4-yl)-benzofuran-3-yl]-(3,4,5-trimethoxyphenyl)-methanone] the IC50 [1, 4] was 33 nM, the IC50 [1, 3] was 40 nM and the IC50 [2] was 10 to 100 nM.
In the case of `COc1cc(C(=O)c2c(-c3cnn(C)c3)oc3c(O)c(OC)ccc23)cc(OC)c1O` [Entry 22], the IC50 [1, 4] is reported as 25 nM and the IC50 [1, 3] is reported as 29 nM.
Molecule `COc1cc(OC)cc(C(=O)c2c(-c3cnn(C)c3)oc3c(O)c(OC)ccc23)c1` [Entry 24, 2-(4-N-methylpyrazolyl)-3-(3,5-dimethoxybenzoyl)-6-methoxy-7-hydroxy-benzofuran] has an IC50 [1, 4] of 3.3 nM, an IC50 [1, 3] of 4.4 nM and an IC50 [2] of 1 to 10 nM.
With `COc1cc(C(=O)c2c(-c3c(C)noc3C)oc3c(O)c(OC)ccc23)cc(OC)c1OC` [Entry 25, 2-(3,5-dimethylisoxazol-4-yl)-7-hydroxy-3-(3,4,5-trimethoxy-benzoyl)-6-methoxybenzo[b]furan] the IC50 [1, 4] was 68 nM, the IC50 [1, 3] was 57 nM and the IC50 [2] was 10 to 100 nM.
`COc1cc(C(=O)c2c(-c3cnn(CC(C)C)c3)oc3c(O)c(OC)ccc23)cc(OC)c1OC` [Entry 26, 2-(4-N-isobutyl-pyrazolyl)-7-hydroxy-3-(3,4,5-trimethoxy-benzoyl)-6-methoxy-benzo[b]furan] was tested, and the IC50 [1, 4] was 21 nM, the IC50 [1, 3] was 14 nM and the IC50 [2] was 1 to 10 nM.
`COc1cc(C(=O)c2c(-n3ccnc3)oc3c(O)c(OC)ccc23)cc(OC)c1OC` [Entry 27, 2-(N-imidazolyl)-7-hydroxy-3-(3,4,5-trimethoxybenzoyl)-6-methoxy-benzo[b]furan] gave an IC50 [1, 4] of 1.6 nM, an IC50 [1, 3] of less than 1 nM and an IC50 [2] of 1 to 10 nM.
With `COc1cc(C(=O)c2c(-c3cccs3)oc3c(O)c(OC)ccc23)cc(OC)c1OC` [Entry 28, 7-Hydroxy-2-(2-thiophenyl)-3-(3,4,5-trimethoxybenzoyl)-6-methoxy-benzo[b]furan] the IC50 [1, 4] was less than 1 nM and the IC50 [2] was 0.1 to 1 nM.
In the case of `COc1ccc2c(C(=O)c3cc(OC)c(OC)c(OC)c3)c(-c3cnn(CC(=O)O)c3)oc2c1` [Entry 29, Sodium {4-[6-Methoxy-3-(3,4,5-trimethoxy-benzoyl)-benzo[b]furan-2-yl]-pyrazol-1-yl}-acetate], the IC50 [1, 4] is reported as 900 nM, the IC50 [1, 3] is reported as 540 nM and the IC50 [2] is reported as 100 nM.
Work on `CCOC(=O)Cn1cc(-c2oc3cc(OC)ccc3c2C(=O)c2cc(OC)c(OC)c(OC)c2)cn1` [Entry 30, {4-[6-Methoxy-3-(3,4,5-trimethoxy-benzoyl)-benzofuran-2-yl]-pyrazol-1-yl}-acetic acid ethyl ester] yielded an IC50 [1, 4] of 29 nM, an IC50 [1, 3] of 15 nM and an IC50 [2] of 10 to 100 nM.
Work on `COc1ccc2c(C(=O)c3cc(OC)c(OC)c(OC)c3)c(-c3cnn(CC(N)=O)c3)oc2c1` [Entry 31, 2-{4-[6-Methoxy-3-(3,4,5-trimethoxy-benzoyl)-benzo[b]furan-2-yl]-pyrazol-1-yl}-acetamide] yielded an IC50 [1, 4] of 3.8 nM, an IC50 [1, 3] of 4 nM and an IC50 [2] of 1 to 10 nM.
For `COc1ccc2c(C(=O)c3cc(OC)c(OC)c(OC)c3)c(-c3cn[nH]c3)oc2c1` [Entry 32, 6-Methoxy-2-(1H-pyrazol-4-yl)-3-(3,4,5-trimethoxybenzoyl)benzo[b]furan], the IC50 [1, 4] was 3.6 nM, the IC50 [1, 3] was 4 nM and the IC50 [2] was 1 to 10 nM.
Work on `COc1cc(C(=O)c2c(-c3cnn(C)c3)oc3c2ccc2ocnc23)cc(OC)c1OC` [Entry 33] yielded an IC50 [1, 4] of 540 nM, an IC50 [1, 3] of 600 nM and an IC50 [2] of 100 to 1000 nM.
Work on `COc1cc(C(=O)c2c(-n3cccn3)oc3c(O)c(OC)ccc23)cc(OC)c1OC` [Entry 34, 2-(N-pyrazolyl)-7-hydroxy-3-(3,4,5-trimethoxybenzoyl)-6-methoxy-benzo[b]furan] yielded an IC50 [1, 4] of 3.5 nM, an IC50 [1, 3] of 2.4 nM and an IC50 [2] of 100 to 1000 nM.
`COc1cc(C(=O)c2c(-n3ccnn3)oc3c(O)c(OC)ccc23)cc(OC)c1OC` [Entry 35, 2-(1N-1,2,3-triazolyl)-7-hydroxy-3-(3,4,5-trimethoxybenzoyl)-6-methoxy-benzo[b]furan] showed an IC50 [2] of 1 to 10 nM.
`COc1cc(C(=O)c2c(-c3ccc(C=O)s3)oc3c(O)c(OC)ccc23)cc(OC)c1OC` [Entry 37, 2-(2-thiophene-5-carbaldehyde)-7-hydroxy-3-(3,4,5-trimethoxybenzoyl)-6-methoxy-benzo[b]furan] gave an IC50 [1, 4] of 1.8 nM, an IC50 [1, 3] of 2.3 nM and an IC50 [2] of 1 to 10 nM.
In the case of `COc1cc(C(=O)c2c(-n3cccc3)oc3c(O)c(OC)ccc23)cc(OC)c1OC` [Entry 38, 2-(1-pyrolyl)-7-hydroxy-3-(3,4,5-trimethoxybenzoyl)-6-methoxy-benzo[b]furan], the IC50 [1, 4] is reported as 1.4 nM, the IC50 [1, 3] is reported as 2.1 nM and the IC50 [2] is reported as 1 to 10 nM.
With `COc1ccc2c(C(=O)c3cc(OC)c(OC)c(OC)c3)c(-c3cn(C)cn3)oc2c1` [Entry 39, [2-(1-methyl-1H-Imidazol-4-yl)-6-methoxy-benzofuran-3-yl]-(3,4,5-trimethoxyphenyl)-methanone] the IC50 [1, 4] was 40 nM, the IC50 [1, 3] was 35 nM and the IC50 [2] was 10 to 100 nM.
`COc1ccc(-n2cc(-c3oc4cc(OC)ccc4c3C(=O)c3cc(OC)c(OC)c(OC)c3)cn2)cc1` [Entry 40, {6-Methoxy-2-[1-(4-methoxy-phenyl)-1H-pyrazol-4-yl]-benzofuran-3-yl}-(3,4,5-trimethoxyphenyl)-methanone] showed an IC50 [1, 4] of 360 nM, an IC50 [1, 3] of 350 nM and an IC50 [2] of 100 to 1000 nM.
For `COc1cc(C(=O)c2c(-c3cnn(C)c3)oc3c(F)c(OC)ccc23)cc(OC)c1OC` [Entry 41], the IC50 [1, 4] was 4.2 nM, the IC50 [1, 3] was 3.6 nM and the IC50 [2] was 1 to 10 nM.
For `COc1ccc2c(C(=O)c3cc(OC)c(OC)c(OC)c3)c(-c3cnn(CCN(C)C)c3)oc2c1` [Entry 42, {2-[1-(2-Dimethylamino-ethyl)-1H-pyrazol-4-yl]-6-methoxy-benzofuran-3-yl}-(3,4,5-trimethoxyphenyl)-methanone], the IC50 [1, 4] was 300 nM, the IC50 [1, 3] was 310 nM and the IC50 [2] was 100 to 1000 nM.
Work on `COc1cc(C(=O)c2c(-n3cncn3)oc3c(O)c(OC)ccc23)cc(OC)c1OC` [Entry 43, 2-(1,2,4-triazol-1-yl)-7-hydroxy-3-(3,4,5-trimethoxybenzoyl)-6-methoxy-benzo[b]furan] yielded an IC50 [1, 4] of 0.37 nM, an IC50 [1, 3] of 0.32 nM and an IC50 [2] of 0.1 to 1 nM.
`COc1ccc2c(C(=O)c3cc(OC)c(OC)c(OC)c3)c(-c3c[nH]cn3)oc2c1` [Entry 45, [2-(1H-Imidazol-4-yl)-6-methoxy-benzofuran-3-yl]-(3,4,5-trimethoxyphenyl)-methanone] showed an IC50 [1, 4] of 4.5 nM, an IC50 [1, 3] of 5.7 nM and an IC50 [2] of 1 to 10 nM.
`COc1cc(C(=O)c2c(-c3ccco3)oc3c(OP(=O)(O)O)c(OC)ccc23)cc(OC)c1OC` [Entry 47, 7-(O-disodiumphosphate)-2-(2-furyl)-6-methoxy-3-(3,4,5-trimethoxybenzoyl)benzo-[b]furan] showed an IC50 [1, 4] of 0.26 nM and an IC50 [1, 3] of 0.31 nM.
For `COc1cc(C(=O)c2c(-c3nccs3)oc3c(OP(=O)(O)O)c(OC)ccc23)cc(OC)c1OC` [Entry 48, 2-(2-Thiazolyl)-7-O-disodiumphosphate-6-methoxy-3-(3,4,5-trimethoxybenzoyl)-benzo[b]furan], the IC50 [1, 4] was 0.53 nM and the IC50 [1, 3] was 0.4 nM.
Molecule `COc1cc(C(=O)c2c(-c3cnn(CC(N)=O)c3)oc3c(O)c(OC)ccc23)cc(OC)c1OC` [Entry 51, 2-{4-[7-Hydroxy-6-methoxy-3-(3,4,5-trimethoxybenzoyl)-benzofuran-2-yl]-pyrazol-1-yl}-acetamide] has an IC50 [2] of 0.1 to 1 nM.

Source: patent publication US8278290B2, “Tubulin polymerisation inhibitors” (Biononics Limited, priority 2005, dated 2012)
